Measured values from ChEMBL document CHEMBL1135930, “Identification of nonpeptidic urotensin II receptor antagonists by virtual screening based on a pharmacophore model derived from structure-activity relationships and nuclear magnetic resonance studies on urotensin II” (J Med Chem, 2002).
The source made the active and inactive calls. The calls are words filed in the database; no cut-off is given here. Positions of bridges follow the written chain, without caps; N, C: chain ends. Residues, ends and D or L forms follow the SMILES beside them.

target: T1, Urotensin-2 receptor (Homo sapiens, UniProt Q9UKP6); assay: Mobilization of intracellular calcium in CHO cells transiently transfected with human Urotensin 2 receptor; type: functional, cell-based; conditions: not given
T1 sequence (Q9UKP6 whole entry): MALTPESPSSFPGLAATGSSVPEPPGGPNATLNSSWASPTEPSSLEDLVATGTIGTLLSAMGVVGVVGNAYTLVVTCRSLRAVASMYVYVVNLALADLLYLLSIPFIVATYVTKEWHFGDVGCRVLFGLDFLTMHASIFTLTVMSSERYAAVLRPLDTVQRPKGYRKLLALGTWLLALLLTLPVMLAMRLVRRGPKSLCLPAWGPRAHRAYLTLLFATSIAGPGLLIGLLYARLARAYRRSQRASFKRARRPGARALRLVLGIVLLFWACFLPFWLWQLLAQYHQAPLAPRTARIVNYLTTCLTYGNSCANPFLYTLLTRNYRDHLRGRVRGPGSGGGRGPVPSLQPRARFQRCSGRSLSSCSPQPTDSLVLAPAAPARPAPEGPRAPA

| SMILES | EC50 |
| --- | --- |
| CC(C)[C@H](NC(=O)[C@H](CS)NC(=O)[C@H](Cc1ccc(O)cc1)NC(=O)[C@H](CCCCN)NC(=O)[C@H](Cc1c[nH]c2ccccc12)NC(=O)[C@H](Cc1ccccc1)NC(=O)[C@H](CS)NC(=O)[C@H](C)NC(=O)[C@@H]1CCCN1C(=O)[C@@H](NC(=O)[C@@H](N)CCC(=O)O)[C@@H](C)O)C(=O)O | 2.7 nM |
| CC(C)[C@H](NC(=O)[C@H](CS)NC(=O)[C@H](Cc1ccc(O)cc1)NC(=O)[C@H](CCCCN)NC(=O)[C@H](Cc1c[nH]c2ccccc12)NC(=O)[C@H](Cc1ccccc1)NC(=O)[C@H](CS)NC(=O)[C@@H](N)CC(=O)O)C(=O)O (H-DCFWKYCV-OH) | 3 nM |
| CC(C)[C@H](NC(=O)[C@H](CS)NC(=O)[C@H](Cc1ccc(O)cc1)NC(=O)[C@H](CCCCN)NC(=O)[C@H](Cc1c[nH]c2ccccc12)NC(=O)[C@H](Cc1ccccc1)NC(=O)[C@H](CS)NC(=O)[C@H](CC(=O)O)NC(=O)[C@H](C)NC(=O)[C@@H](NC(=O)[C@@H](N)CCC(=O)O)[C@@H](C)O)C(=O)O (H-ETADCFWKYCV-OH) | 1.9 nM |
| NCCCC[C@H](NC(=O)[C@H](Cc1c[nH]c2ccccc12)NC(=O)[C@H](Cc1ccccc1)NC(=O)[C@@H](N)CS)C(=O)N[C@@H](Cc1ccc(O)cc1)C(=O)N[C@@H](CS)C(N)=O (H-CFWKYC-NH2) | 2.3 nM |
| CC(C)[C@H](NC(=O)[C@H](CS)NC(=O)[C@H](Cc1ccc(O)cc1)NC(=O)[C@H](CCCCN)NC(=O)[C@H](Cc1c[nH]c2ccccc12)NC(=O)[C@H](Cc1ccccc1)NC(=O)[C@H](CS)NC(=O)[C@H](CC(=O)O)NC(=O)[C@@H]1CCCN1C(=O)[C@H](C)NC(=O)[C@@H](N)CCC(=O)O)C(=O)O | 3.3 nM |
| CC(C)[C@H](NC(=O)[C@H](CS)NC(=O)[C@H](Cc1ccc(O)cc1)NC(=O)[C@H](CCCCN)NC(=O)[C@H](Cc1c[nH]c2ccccc12)NC(=O)[C@H](Cc1ccccc1)NC(=O)[C@H](C)NC(=O)[C@H](CC(=O)O)NC(=O)[C@@H]1CCCN1C(=O)[C@@H](NC(=O)[C@@H](N)CCC(=O)O)[C@@H](C)O)C(=O)O | 233 nM |
| CC(C)[C@H](NC(=O)[C@H](CS)NC(=O)[C@H](Cc1ccc(O)cc1)NC(=O)[C@H](CCCCN)NC(=O)[C@H](Cc1c[nH]c2ccccc12)NC(=O)[C@H](Cc1ccccc1)NC(=O)[C@H](CS)NC(=O)[C@H](CC(=O)O)NC(=O)[C@@H]1CCCN1C(=O)[C@@H](NC(=O)[C@H](C)N)[C@@H](C)O)C(=O)O | 1.8 nM |
| CC(C)[C@H](NC(=O)[C@H](CS)NC(=O)[C@H](Cc1ccc(O)cc1)NC(=O)[C@H](CCCCN)NC(=O)[C@H](Cc1c[nH]c2ccccc12)NC(=O)[C@H](Cc1ccccc1)NC(=O)[C@@H](N)CS)C(=O)O (H-CFWKYCV-OH) | 1.8 nM |

same assay, conditions: cho

| SMILES | EC50 |
| --- | --- |
| C[C@H](NC(=O)[C@@H]1CSSC[C@H](NC(=O)[C@H](CC(=O)O)NC(=O)[C@@H]2CCCN2C(=O)[C@@H](NC(=O)[C@@H](N)CCC(=O)O)[C@@H](C)O)C(=O)N[C@@H](Cc2ccccc2)C(=O)N[C@@H](Cc2c[nH]c3ccccc23)C(=O)N[C@@H](CCCCN)C(=O)N[C@@H](Cc2ccc(O)cc2)C(=O)N1)C(=O)O (H-ETPDCFWKYCA-OH; disulfide 5-10) | 3.2 nM |
| CC(C)[C@H](NC(=O)[C@@H]1CSSC[C@H](NC(=O)[C@H](CC(=O)O)NC(=O)[C@@H]2CCCN2C(=O)[C@@H](NC(=O)[C@@H](N)CCC(=O)O)[C@@H](C)O)C(=O)N[C@@H](C)C(=O)N[C@@H](Cc2c[nH]c3ccccc23)C(=O)N[C@@H](CCCCN)C(=O)N[C@@H](Cc2ccc(O)cc2)C(=O)N1)C(=O)O (H-ETPDCAWKYCV-OH; disulfide 5-10) | 5.7 nM |
| CC(C)[C@H](NC(=O)[C@@H]1CSSC[C@H](NC(=O)[C@H](CC(=O)O)NC(=O)[C@@H]2CCCN2C(=O)[C@@H](NC(=O)[C@@H](N)CCC(=O)O)[C@@H](C)O)C(=O)N[C@@H](Cc2ccccc2)C(=O)N[C@@H](Cc2c[nH]c3ccccc23)C(=O)N[C@@H](C)C(=O)N[C@@H](Cc2ccc(O)cc2)C(=O)N1)C(=O)O (H-ETPDCFWAYCV-OH; disulfide 5-10) | 14800 nM |
| CC(C)[C@H](NC(=O)[C@@H]1CSSC[C@H](NC(=O)[C@H](CC(=O)O)NC(=O)[C@@H]2CCCN2C(=O)[C@@H](N)[C@@H](C)O)C(=O)N[C@@H](Cc2ccccc2)C(=O)N[C@@H](Cc2c[nH]c3ccccc23)C(=O)N[C@@H](CCCCN)C(=O)N[C@@H](Cc2ccc(O)cc2)C(=O)N1)C(=O)O (H-TPDCFWKYCV-OH; disulfide 4-9) | 2.4 nM |
| CC(C)[C@H](NC(=O)[C@@H]1CSSC[C@H](NC(=O)[C@H](CC(=O)O)NC(=O)[C@@H]2CCCN2C(=O)[C@@H](NC(=O)[C@@H](N)CCC(=O)O)[C@@H](C)O)C(=O)N[C@@H](Cc2ccccc2)C(=O)N[C@@H](CCCCN)C(=O)N[C@@H](Cc2ccc(O)cc2)C(=O)N1)C(=O)O (H-ETPDCFKYCV-OH; disulfide 5-9) | > 10000 nM |
| CC(C)[C@H](NC(=O)[C@@H]1CSSC[C@H](NC(=O)[C@H](CC(=O)O)NC(=O)[C@@H]2CCCN2C(=O)[C@@H](NC(=O)[C@@H](N)CCC(=O)O)[C@@H](C)O)C(=O)N[C@@H](Cc2ccccc2)C(=O)N[C@@H](C)C(=O)N[C@@H](CCCCN)C(=O)N[C@@H](Cc2ccc(O)cc2)C(=O)N1)C(=O)O (H-ETPDCFAKYCV-OH; disulfide 5-10) | 1300 nM |
| CC(C)[C@H](NC(=O)[C@@H]1CSSC[C@H](NC(=O)[C@H](CC(=O)O)NC(=O)[C@@H]2CCCN2C(=O)[C@@H](NC(=O)[C@@H](N)CCC(=O)O)[C@@H](C)O)C(=O)N[C@@H](Cc2c[nH]c3ccccc23)C(=O)N[C@@H](CCCCN)C(=O)N[C@@H](Cc2ccc(O)cc2)C(=O)N1)C(=O)O (H-ETPDCWKYCV-OH; disulfide 5-9) | 53 nM |
| C[C@@H](O)[C@H](NC(=O)[C@@H](N)CCC(=O)O)C(=O)N1CCC[C@H]1C(=O)N[C@@H](CC(=O)O)C(=O)N[C@H]1CSSC[C@@H](C(=O)O)NC(=O)[C@H](Cc2ccc(O)cc2)NC(=O)[C@H](CCCCN)NC(=O)[C@H](Cc2c[nH]c3ccccc23)NC(=O)[C@H](Cc2ccccc2)NC1=O (H-ETPDCFWKYC-OH; disulfide 5-10) | 1.8 nM |
| CC(C)[C@H](NC(=O)[C@@H]1CSSC[C@H](NC(=O)[C@H](CC(=O)O)NC(=O)[C@@H]2CCCN2)C(=O)N[C@@H](Cc2ccccc2)C(=O)N[C@@H](Cc2c[nH]c3ccccc23)C(=O)N[C@@H](CCCCN)C(=O)N[C@@H](Cc2ccc(O)cc2)C(=O)N1)C(=O)O (H-PDCFWKYCV-OH; disulfide 3-8) | 3.6 nM |
| CC(C)[C@H](NC(=O)[C@@H]1CSSC[C@H](NC(=O)[C@H](CC(=O)O)NC(=O)[C@@H]2CCCN2C(=O)[C@@H](NC(=O)[C@@H](N)CCC(=O)O)[C@@H](C)O)C(=O)N[C@@H](Cc2ccccc2)C(=O)N[C@@H](Cc2c[nH]c3ccccc23)C(=O)N[C@@H](CCCCN)C(=O)N[C@@H](C)C(=O)N1)C(=O)O (H-ETPDCFWKACV-OH; disulfide 5-10) | 193 nM |

target: T2, Urotensin-2 receptor (Homo sapiens) (UniProt Q9UKP6); conditions: CHO
T2 sequence (whole entry): T1 sequence (Q9UKP6 whole entry)

| SMILES | NA |
| --- | --- |
| CC(C)[C@H](NC(=O)[C@H](CS)NC(=O)[C@H](CCCCN)NC(=O)[C@H](Cc1c[nH]c2ccccc12)NC(=O)[C@H](Cc1ccccc1)NC(=O)[C@H](CS)NC(=O)[C@H](CC(=O)O)NC(=O)[C@H]1CCCN1C(=O)[C@@H](NC(=O)[C@@H](N)CCC(=O)O)[C@@H](C)O)C(=O)O | inactive |
| CC(C)[C@H](NC(=O)[C@H](CS)NC(=O)[C@@H](Cc1ccc(O)cc1)NC(=O)[C@H](CCCCN)NC(=O)[C@H](Cc1c[nH]c2ccccc12)NC(=O)[C@H](Cc1ccccc1)NC(=O)[C@H](CS)NC(=O)[C@H](CC(=O)O)NC(=O)[C@H]1CCCN1C(=O)[C@@H](NC(=O)[C@@H](N)CCC(=O)O)[C@@H](C)O)C(=O)O | inactive |
| CC(C)[C@H](NC(=O)[C@H](CS)NC(=O)[C@H](Cc1ccc(O)cc1)NC(=O)[C@H](Cc1c[nH]c2ccccc12)NC(=O)[C@H](Cc1ccccc1)NC(=O)[C@H](CS)NC(=O)[C@H](CC(=O)O)NC(=O)[C@H]1CCCN1C(=O)[C@@H](NC(=O)[C@@H](N)CCC(=O)O)[C@@H](C)O)C(=O)O | inactive |
